According to US20240158446A1, “CYCLIC COMPOUND HAVING SELECTIVE INHIBITORY ACTION ON KRAS OVER HRAS AND NRAS” (CHUGAI SEIYAKU KABUSHIKI KAISHA, priority 2021, published 2024):
Like-named read-outs stand apart in the source and are kept apart here. One block for each compound: values may come before it. Where a SMILES comes first, the peptide text is derived from it. Bridges are numbered along the chain shown (N, C = ends). [ ]: non-standard residue; d: D form. The star is where a group is joined. hPhe(3-Cl-4-CF3) = N[C@@H](CCc1ccc(C(F)(F)F)c(Cl)c1)C(=O)O; NPrPhe(4-CF3) = CCCN[C@@H](Cc1ccc(C(F)(F)F)cc1)C(=O)O; 3Oxa8azabicyclo(3.2.1)octane = C1CC2COCC1N2*; NMeGly(cPent) = CN[C@H](C(=O)O)C1CCCC1; NMeD = CN[C@@H](CC(=O)O)C(=O)O; NMeL = CN[C@@H](CC(C)C)C(=O)O; Ac5c = NC1(C(=O)O)CCCC1; Sar = CNCC(=O)O

What was measured:
[1] = target: GDP-bound HRAS wild-type protein (Homo sapiens, UniProt P01112); experiment: Binding to HRAS by surface plasmon resonance (SPR), Single Cycle Kinetics; settings: for HRAS/KRAS (ratio of KD value for HRAS to KD value for KRAS): GDP-bound HRAS wild-type protein vs GDP-bound KRAS wild-type protein; for HRAS/KRAS (ratio of KD value with respect to GDP-bound HRAS wild-type protein to KD value with respect to KRAS): SPR KD ratio HRAS/KRAS, class symbols
GDP-bound HRAS wild-type protein, sequence (P01112 whole entry): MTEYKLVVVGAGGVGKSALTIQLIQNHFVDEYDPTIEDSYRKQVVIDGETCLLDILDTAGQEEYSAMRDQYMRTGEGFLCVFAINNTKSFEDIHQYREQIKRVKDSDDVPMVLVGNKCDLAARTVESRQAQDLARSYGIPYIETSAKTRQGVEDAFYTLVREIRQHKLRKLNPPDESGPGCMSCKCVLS

[2] = target: GDP-bound NRAS wild-type protein (Homo sapiens, UniProt P01111); experiment: Binding to NRAS by surface plasmon resonance (SPR), Single Cycle Kinetics; settings: for NRAS/KRAS (ratio of KD value for NRAS to KD value for KRAS): GDP-bound NRAS wild-type protein vs GDP-bound KRAS wild-type protein; for NRAS/KRAS (ratio of KD value with respect to GDP-bound NRAS wild-type protein to KD value with respect to KRAS): SPR KD ratio NRAS/KRAS, class symbols
GDP-bound NRAS wild-type protein, sequence (P01111 whole entry): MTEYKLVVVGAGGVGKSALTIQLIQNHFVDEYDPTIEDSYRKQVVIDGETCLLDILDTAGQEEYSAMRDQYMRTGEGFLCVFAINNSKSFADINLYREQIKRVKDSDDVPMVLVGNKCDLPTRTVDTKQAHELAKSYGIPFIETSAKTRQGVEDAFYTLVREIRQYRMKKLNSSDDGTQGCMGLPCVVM

[3] = tested on: human lung cancer strain NCI-H441;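 further: cell proliferation inhibition after four days measured by CellTiter-Glo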
[4] = target: GDP-bound KRAS wild-type protein (Homo sapiens, UniProt P01116); experiment: Binding to KRAS by surface plasmon resonance (SPR), Single Cycle Kinetics; settings: GDP-bound KRAS wild-type protein, read-out: KRAS KD
GDP-bound KRAS wild-type protein, sequence (P01116 whole entry): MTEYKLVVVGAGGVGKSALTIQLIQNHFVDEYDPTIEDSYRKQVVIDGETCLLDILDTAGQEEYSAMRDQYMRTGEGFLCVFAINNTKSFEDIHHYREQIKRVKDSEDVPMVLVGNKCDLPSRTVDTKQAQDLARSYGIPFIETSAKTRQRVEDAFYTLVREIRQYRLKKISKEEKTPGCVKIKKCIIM

[5] = SPR, Single Cycle Kinetics, 1:1 binding model
[6] = SPR Single Cycle Kinetics, 1:1 binding model

SMILES: CCCC[C@H]1C(=O)N[C@@H]([C@@H](C)CC)C(=O)N(C)CC(=O)N(C)[C@H]2C/C=C\CCN(C2=O)[C@@H](Cc2ccc(C(F)(F)F)cc2)C(=O)N(C)CC(=O)N[C@@H](CCc2cc(F)c(C(F)(F)F)c(F)c2)C(=O)N2C[C@H](OCC)C[C@H]2C(=O)NC2(CC(F)(F)C2)C(=O)N(C)[C@@H](C2CCCC2)C(=O)N(C)[C@H](C(=O)N(C)C)CC(=O)N1C [PP1740]
HRAS/KRAS (KD ratio) ([1]; ratio of KD for GDP-bound HRAS wild-type protein to KD for KRAS, SPR): A (a compound having 10 or more and less than 20 is denoted as A) | NRAS/KRAS (KD ratio) ([2]; ratio of KD for GDP-bound NRAS wild-type protein to KD for KRAS, SPR): A (a compound having 10 or more and less than 20 is denoted as A) | IC50 ([3]; read-out: NCI-H441 IC50, NCI-H441 cell proliferation, 4 days, CellTiter-Glo): 3.6 nM | Kd ([4]; SPR, Single Cycle Kinetics): 0.053 nM

SMILES: CCO[C@@H]1C[C@H]2C(=O)NC3(CCC3)C(=O)N(C)[C@@H](C3CCCC3)C(=O)N(C)[C@H](C(=O)N(C)C)CC(=O)N(C)[C@@H](CC3CCCC3)C(=O)N[C@@H]([C@@H](C)CC)C(=O)N(C)CC(=O)N(C)[C@H]3C/C=C\CCN(C3=O)[C@@H](Cc3ccc(C(F)(F)F)cc3)C(=O)N(C)CC(=O)N[C@@H](CCc3ccc4sccc4c3)C(=O)N2C1 [PP1261]
HRAS/KRAS (ratio of KD value for HRAS to KD value for KRAS) ([1]; SPR, KD ratio class): A (a compound having 10 or more and less than 20 is denoted as A) | NRAS/KRAS (ratio of KD value for NRAS to KD value for KRAS) ([2]; SPR, KD ratio class): A (a compound having 10 or more and less than 20 is denoted as A) | IC50 [3]: 76.8 nM | Kd [4, 5]: 0.44 nM

SMILES: CCCN1C(=O)CN(C)C(=O)CN(C)C(=O)[C@H]([C@@H](C)CC)NC(=O)[C@H](CC(C)C)N(C)C(=O)C[C@@H](C(=O)N2C3CCC2COC3)N(C)C(=O)[C@H](C2CCCC2)N(C)C(=O)C2(CCCC2)NC(=O)[C@@H]2CCCN2C(=O)[C@H](CCc2ccc(C(F)(F)F)c(Cl)c2)NC(=O)CN(C)C(=O)[C@@H]1Cc1ccc(C(F)(F)F)cc1 [PP0173] ([NMeL]I[Sar][Sar][NPrPhe(4-CF3)][Sar][hPhe(3-Cl-4-CF3)]P[Ac5c][NMeGly(cPent)][NMeD]-{3Oxa8azabicyclo(3.2.1)octane}; lactam N-11)
HRAS/KRAS (ratio of KD value for HRAS to KD value for KRAS) ([1]; SPR): C (A compound having a KD ratio of 0.1 or more and less than 3 is denoted as C) | NRAS/KRAS (ratio of KD value for NRAS to KD value for KRAS) ([2]; SPR): B (a compound having 3 or more and less than 10 is denoted as B) | IC50 [3]: 11.6 nM | Kd [4, 6]: 0.67 nM

SMILES: CC[C@H](C)[C@@H]1NC(=O)[C@H](C)N(C)C(=O)C[C@@H](C(=O)N(C)C)N(C)C(=O)[C@H](C2CCCC2)N(C)C(=O)C2(CCC2)NC(=O)[C@@H]2CCCN2C(=O)[C@H](CCc2cc(F)c(C(F)(F)F)c(F)c2)NC(=O)CN(C)C(=O)[C@H](Cc2ccc(C(F)(F)F)cc2)N2CC/C=C\C[C@@H](C2=O)N(C)C(=O)CN(C)C1=O [PP1271, (2S,8S,14S,20S,23S,27S,30S,36S,38Z)-20-cyclopentyl-8-[2-[3,5-difluoro-4-(trifluoromethyl)phenyl]ethyl]-N,N,4,19,22,26,27,32,35-nonamethyl-30-[(1S)-1-methylpropyl]-3,6,9,15,18,21,25,28,31,34,42-undecaoxo-2-[[4-(trifluoromethyl)phenyl]methyl]spiro[1,4,7,10,16,19,22,26,29,32,35-undecazatricyclo[34.5.1.0^10,14]dotetracont-38-ene-17,1′-cyclobutane]-23-carboxamide]
HRAS/KRAS (ratio of KD value for HRAS to KD value for KRAS) ([1]; SPR, KD ratio class): A (a compound having 10 or more and less than 20 is denoted as A) | NRAS/KRAS (ratio of KD value for NRAS to KD value for KRAS) ([2]; SPR, KD ratio class): AA (a compound having 20 or more is denoted as AA) | IC50 [3]: 90.7 nM | Kd [4, 5]: 0.054 nM

SMILES: CCO[C@@H]1C[C@H]2C(=O)NC3(CC(C)(C)C3)C(=O)N(C)[C@@H](C3CCCC3)C(=O)N(C)[C@H](C(=O)N(C)C)CC(=O)N(C)[C@@H](COC)C(=O)N[C@@H]([C@@H](C)CC)C(=O)N(C3CC3)CC(=O)N(C)[C@H]3C/C=C\CCN(C3=O)[C@@H](CC3CCCCC3)C(=O)N(C)CC(=O)N[C@@H](CCc3ccc(Cl)c(Cl)c3)C(=O)N2C1 [PP2563]
HRAS/KRAS (ratio of KD value with respect to GDP-bound HRAS wild-type protein to KD value with respect to KRAS) [1]: A (a compound having 10 or more and less than 20 is denoted as A) | NRAS/KRAS (ratio of KD value with respect to GDP-bound NRAS wild-type protein to KD value with respect to KRAS) [2]: A (a compound having 10 or more and less than 20 is denoted as A) | IC50 [3]: 108 nM | Kd [4, 6]: 2.3 nM

SMILES: CCC(CC)[C@H]1C(=O)N(C)[C@H](C(=O)N2CCCCC2)CC(=O)N(C)[C@@H](COC)C(=O)N[C@@H]([C@@H](C)CC)C(=O)N(C)CC(=O)N(C)[C@H]2C/C=C\CCN(C2=O)[C@@H](Cc2ccc(C(F)(F)F)cc2)C(=O)N(C)CC(=O)N[C@@H](CCc2ccc(Cl)c(Cl)c2)C(=O)N2C[C@H](OC(C)C)C[C@H]2C(=O)NC2(CC(C)(C)C2)C(=O)N1C [PP2612]
HRAS/KRAS (ratio of KD value with respect to GDP-bound HRAS wild-type protein to KD value with respect to KRAS) [1]: A (a compound having 10 or more and less than 20 is denoted as A) | NRAS/KRAS (ratio of KD value with respect to GDP-bound NRAS wild-type protein to KD value with respect to KRAS) [2]: AA (a compound having 20 or more is denoted as AA) | IC50 [3]: 199 nM | Kd [4, 6]: 2.4 nM

The remaining compounds from weak to strong by IC50 [3], led by results:

IC50 [3]: 17 nM | Kd [4, 6]: 0.1 nM
SMILES: CC[C@H](C)[C@@H]1NC(=O)[C@H](COC)N(C)C(=O)C[C@@H](C(=O)N(C)C)N(C)C(=O)[C@H](C2CCCCC2)N(C)C(=O)C2(CC(C)(C)C2)NC(=O)[C@@H]2C[C@@H](OC3CCC3)CN2C(=O)[C@H](CCc2cc(F)c(C(F)(F)F)c(F)c2)NC(=O)CN(C)C(=O)[C@H](Cc2ccc(C(F)(F)F)cc2)N2CC/C=C\C[C@@H](C2=O)N(C)C(=O)CN(C)C1=O [PP2655]
HRAS/KRAS (ratio of KD value with respect to GDP-bound HRAS wild-type protein to KD value with respect to KRAS) [1]: A (a compound having 10 or more and less than 20 is denoted as A) | NRAS/KRAS (ratio of KD value with respect to GDP-bound NRAS wild-type protein to KD value with respect to KRAS) [2]: AA (a compound having 20 or more is denoted as AA)

IC50 [3]: 15.7 nM | Kd ([4]; SPR, Single Cycle Kinetics): 0.19 nM
SMILES: CCCOC[C@H]1C(=O)N[C@@H]([C@@H](C)CC)C(=O)N(C)CC(=O)N(C)[C@H]2C/C=C\CCN(C2=O)[C@@H](Cc2ccc(C)cc2)C(=O)N(C)CC(=O)N[C@@H](CCc2ccc(C(F)(F)F)c(Cl)c2)C(=O)N2C[C@H](OCC)C[C@H]2C(=O)NC2(CC(C)(C)C2)C(=O)N(C)[C@@H](C2CCCC2)C(=O)N(C)[C@H](C(=O)N(C)CC)CC(=O)N1C [PP2469]
HRAS/KRAS (ratio of KD value for HRAS to KD value for KRAS) ([1]; SPR): B (a compound having 3 or more and less than 10 is denoted as B) | NRAS/KRAS (ratio of KD value for NRAS to KD value for KRAS) ([2]; SPR): A (a compound having 10 or more and less than 20 is denoted as A)

IC50 [3]: 14.2 nM | Kd [4, 6]: 0.3 nM
SMILES: CCC[C@H]1C(=O)N[C@@H]([C@@H](C)CC)C(=O)N2C[C@@H](OC)C[C@H]2C(=O)N(C)[C@H]2C/C=C\CCN(C2=O)[C@@H](Cc2ccc(C)cc2)C(=O)N(C)CC(=O)N[C@@H](CCc2ccc(C(F)(F)F)c(OC)c2)C(=O)N2C[C@H](OCC)C[C@H]2C(=O)NC2(CC(C)(C)C2)C(=O)N(C)[C@@H](C2CCCC2)C(=O)N(C)[C@H](C(=O)N(C)C)CC(=O)N1C [PP2557]
HRAS/KRAS (ratio of KD value with respect to GDP-bound HRAS wild-type protein to KD value with respect to KRAS) [1]: B (a compound having 3 or more and less than 10 is denoted as B) | NRAS/KRAS (ratio of KD value with respect to GDP-bound NRAS wild-type protein to KD value with respect to KRAS) [2]: A (a compound having 10 or more and less than 20 is denoted as A)

IC50 [3]: 12.3 nM | Kd [4, 5]: 0.2 nM
SMILES: CCO[C@@H]1C[C@H]2C(=O)NC3(CCC3)C(=O)N(C)[C@@H](C3CCCC3)C(=O)N(C)[C@H](C(=O)N3CCOCC3)CC(=O)N(C)[C@@H](CC(C)C)C(=O)N[C@@H]([C@@H](C)CC)C(=O)N(C)CC(=O)N(C)[C@H]3C/C=C\CCN(C3=O)[C@@H](Cc3ccc(C(F)(F)F)cc3)C(=O)N(C)CC(=O)N[C@@H](CCc3cc(F)c(C(F)(F)F)c(F)c3)C(=O)N2C1 [PP1282]
HRAS/KRAS (ratio of KD value for HRAS to KD value for KRAS) ([1]; SPR, KD ratio class): A (a compound having 10 or more and less than 20 is denoted as A) | NRAS/KRAS (ratio of KD value for NRAS to KD value for KRAS) ([2]; SPR, KD ratio class): A (a compound having 10 or more and less than 20 is denoted as A)

IC50 [3]: 7.1 nM | Kd [4, 5]: 0.05 nM
SMILES: CC[C@H](C)[C@@H]1NC(=O)[C@H](CC)N(C)C(=O)C[C@@H](C(=O)N(C)C)N(C)C(=O)[C@H](C2CCCC2)N(C)C(=O)C2(CCCC2)NC(=O)[C@@H]2CCCN2C(=O)[C@H](CCc2cc(F)c(C(F)(F)F)c(F)c2)NC(=O)CN(C)C(=O)[C@H](Cc2ccc(C(F)(F)F)cc2)N2C[C@H](C)[C@H](C)C[C@@H](C2=O)N(C)C(=O)CN(C)C1=O [PP1364]
HRAS/KRAS (ratio of KD value for HRAS to KD value for KRAS) ([1]; SPR, KD ratio class): B (a compound having 3 or more and less than 10 is denoted as B) | NRAS/KRAS (ratio of KD value for NRAS to KD value for KRAS) ([2]; SPR, KD ratio class): A (a compound having 10 or more and less than 20 is denoted as A)
